Experimental findings from patent US20220096592A1, “PIC1 VARIANTS WITH IMPROVED SOLUBILITY AND METHODS OF USING THE SAME” (priority 2019, published 2022) are described below.

Experiment [1] has as its target T1, MPO (Homo sapiens, UniProt P05164).
T1 construct: purchased Lee BioSolutions (Maryland Heights, Mo.)
In words: plate-based assay of binding to solid phased MPO. The settings on record: binding curves and half-maximal binding, FIG. 2C, 2D. On the procedure: (§1) The plates were washed with PBST (phosphate buffered saline+0.1% Tween) and then blocked with 1% gelatin/PBS for 2 hours at room temperature. After washing, the plates were incubated with PA or sarcosine variant peptides starting at 2.5 mg/ml and then serially diluted in 1% gelatin/PBS for 1 hour at room temperature. After washing, the plates were probed with rabbit anti-PA (developed with Cocalico Biologicals, Reamstown, Pa.) at 1:1000 in 1% gelatin/PBS for 1 hour, room temperature, followed by a goat anti-rabbit HRP (Sigma Aldrich, St Louis, Mo.) at 1:1,000 in 1% gelatin/PBS for 1 hour at room temperature with a washing step in between. Wells were developed using TMB substrate solution, stopped using 1 N H2SO4, and read at 450 nm in a plate reader.
A plate-based assay was performed to test the binding of the peptide variants to solid phased MPO. MPO binding was identified for all variants, except for C9,10.

Experiment [2] addresses T2, C1q (Homo sapiens, UniProt P02745+P02746+P02747).
T2 construct: purchased Complement Technology (Tyler, Tex.)
The experiment can be described thus: ELISA-type assay of peptide binding to C1q. The settings on record: binding curves and half-maximal binding, FIG. 1C, 1D. On the procedure:
as §1
Higher concentrations of DMSO interfere with the detecting reagents resulting in a partial binding curve.
(An ELISA detects its analyte on a solid surface through an enzyme-linked reagent.)

The subject of experiment [3] is antibody-initiated complement activation (ABO incompatible hemolysis). The following applies: for complement inhibition overall, in words: both hemolytic complement inhibition assays; for inhibition of ABO incompatible hemolysis, in words: peptides at 1.8 mM, compared with PA-dPEG24, FIG. 1A. On the procedure: (§2) For hemolytic complement assays, human red blood cells (RBCs) from type AB donors were purified, washed and standardized to 1×10^9 cells/ml, as previously described. Human sera from type 0 donors at a 20% final concentration was combined with […] PIC1 or sarcosine variant peptides, and the volume was brought up to 0.15 ml with GVBS^++ and […] RBCs. For factor B-depleted sera hemolytic assays, a final of 0.005% factor B depleted sera was incubated with […] PIC1 or sarcosine variant peptides with 0.1 ml antibody-sensitized sheep red blood cells (EA) in a final volume of 0.75 ml GVBS^++. The samples were incubated for one hour at 37° C. Then, 1.0 ml of GVBS^−− was added to the factor B-depleted samples to stop the reaction. The samples were spun at 3,000 rpm for 5 minutes. The supernatant was then collected and read at 412 nm. An analysis was performed to represent the values as a percent of the positive control, which consists of human 0 sera and AB red blood cells in GVBS^++ buffer.
(§3) An evaluation of the extent to which the peptide variants inhibit antibody-initiated complement activation was performed. The peptide variants were tested in the following two hemolytic assays: (i) an ABO incompatibility ex vivo assay and (ii) a classical pathway CH50-type assay in factor B-depleted sera.
In the ABO incompatibility hemolytic assay, purified erythrocytes from a ‘type AB+’ donor were incubated with sera from a ‘type 0’ subject containing anti-A and anti-B antibodies; peptides were tested at 1.8 mM.

In experiment [4] the target is T3, MPO heme ring (Homo sapiens, UniProt P05164).
T3 construct: purchased Lee BioSolutions (Maryland Heights, Mo.)
In words: MPO heme ring oxidative degradation (absorbance 300-550 nm). It counts as biochemical. The following applies: peptides at 3 mM, with H2O2, FIG. 3A-3H. On the procedure: In a 96 well plate, 0.025 ml of 1.7 mg/ml MPO was combined with 0.00125 ml of 0.5% H2O2 and 3 mM PIC1 or sarcosine variant peptides in a total volume of 0.125 ml PBS and left to incubate at room temperature for 2 minutes. Using a 96 well plate reader, the wells were scanned for absorbance from 300-550 nm to generate curves reflecting the iron state in the MPO heme ring, as previously reported.
The ability of the variants to prevent degradation of the heme ring in the MPO molecule was then evaluated. […] Degradation of the heme ring can be evaluated via spectrometric measurements of absorption of wavelengths from 300 to 550 nm.

The nature of experiment [5]: Total Antioxidant Capacity (TAC) assay. The settings on record: for total antioxidant capacity, in words: 0.03-0.25 mM, copper reducing equivalents, FIG. 4. On the procedure: The TAC (Total Antioxidant Capacity) Assay (Cell Biolabs, Inc. San Diego, Calif.) was used to measure the antioxidant capacity of the sarcosine variants based on the reduction of copper (II) to copper (I). The assay was performed according to the recommended kit protocol.
Antioxidant activity was measured in copper reducing equivalents (CRE). Peptides were tested over a range of concentrations from 0.03-0.25 mM then compared to the standard.

The subject of experiment [6] is purified human neutrophils. In words: NETosis assay (immune complex activated serum and H2O2; PicoGreen free DNA, fluorescence microscopy). It counts as cell-based. The following applies: peptides at 2 mM, FIG. 5A. On the procedure: NETosis assays with immune complexes were performed as previously described. Briefly, normal human serum was stimulated with ovalbumin-antiovalbumin immune complexes in GVBS^++ for 30 minutes at 37° C. This mixture along with 0.05% H2O2 was then added to purified human neutrophils resuspended in RPMI with or without sarcosine variants (2 mM), allowing NETosis to occur. Quantitation of free DNA released from the neutrophils was performed using PicoGreen. Slides were stained with DAPI (Southern Biotech, Birmingham, Ala.). The following antibodies were used to visualize formation of NETs: • (i) mouse anti-elastase (Invitrogen, Carlsbad, Calif.) as a primary antibody with the secondary goat anti-mouse antibody Alexa Fluor 568 (Novus Biologicals, Centennial, Colo.) and • (ii) rabbit anti-histone H3 (Abcam, Cambridge Mass.) with goat anti-rabbit antibody Alexa Fluor 488 (Novus Biologicals). Fluorescence microscopy using an Olympus BX53 microscope was performed to visualize NETs.
The peptide variants were tested for inhibition of NETosis. In this assay, purified human neutrophils were stimulated with normal human serum activated with ovalbumin-antiovalbumin immune complexes and hydrogen peroxide. Free DNA expressed from the neutrophils was then measured in a PicoGreen assay. […] Direct visualization of neutrophil extracellular trap (NET) formation by fluorescence microscopy was used to confirm the above NETosis results with the 18 variant. Human neutrophils were purified and stimulated on glass slides then stained with DAPI to visualize DNA and probed with anti-neutrophil elastase (αNE) and anti-histone H3 (αhistone), as previously described. […] Fluorescence microscopy visualization of NETs confirmed the findings seen for quantitative measurements of free DNA.

In experiment [7] the target is T4, myeloperoxidase (MPO) (Homo sapiens, UniProt P05164).
T4 construct: purchased Lee BioSolutions (Maryland Heights, Mo.)
The experiment can be described thus: MPO peroxidase activity, TMB-based assay. It counts as biochemical. On the procedure:
PIC1 and sarcosine variants were diluted to 25 mg/ml and then serially titrated in a 96 well plate at a volume of 0.02 ml. Myeloperoxidase (MPO) was diluted to 20 μg/ml and 0.02 ml was added to the titrated peptides. TMB (3,3′,5,5′-tetramethylbenzidine) (0.1 ml) was added to each well for 2 minutes, followed by 0.1 ml of 2.5 N H2SO4 for another 2 minutes, and then read on a 96 well plate reader (BioTek) at 450 nm.
In this assay, the variants were tested for MPO inhibition over a range of concentrations. Strong MPO inhibition was found for all variants with the exception of the no-cysteine variant (C9,10).

Experiment [8] relates to classical complement pathway. On the procedure:
as §2, §3
A CH50-type hemolytic assay was then performed. with antibody-sensitized sheep erythrocytes, isolating the classical pathway by utilizing factor B-depleted sera; peptides were tested at 0.4 mM.

Where [9] appears, read: summary grade of Table 4, key not given.

SMILES strings stand for the structures. Where a SMILES comes first, the peptide text is derived from it. [ ]: non-standard residue; d: D form. Sar = CNCC(=O)O

T4 sequence (P05164 279-745 limits assumed): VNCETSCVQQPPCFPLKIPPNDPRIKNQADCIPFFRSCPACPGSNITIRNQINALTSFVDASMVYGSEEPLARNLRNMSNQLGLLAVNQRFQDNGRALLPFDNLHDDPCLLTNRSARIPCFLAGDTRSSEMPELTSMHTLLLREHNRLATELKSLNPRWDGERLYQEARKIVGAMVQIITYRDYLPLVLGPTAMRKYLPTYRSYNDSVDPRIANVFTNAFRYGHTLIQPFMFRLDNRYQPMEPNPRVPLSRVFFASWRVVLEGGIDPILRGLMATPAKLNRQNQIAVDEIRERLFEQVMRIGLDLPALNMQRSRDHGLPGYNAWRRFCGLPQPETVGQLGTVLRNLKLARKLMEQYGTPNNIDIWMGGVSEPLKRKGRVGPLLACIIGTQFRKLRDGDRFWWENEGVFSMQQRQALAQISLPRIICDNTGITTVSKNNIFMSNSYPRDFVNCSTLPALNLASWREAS
T4 sequence (P05164 165-273 limits assumed): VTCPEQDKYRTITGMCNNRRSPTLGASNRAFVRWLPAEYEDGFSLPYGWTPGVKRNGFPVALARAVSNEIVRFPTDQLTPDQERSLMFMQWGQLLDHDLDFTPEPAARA
T3 sequence (P05164 279-745 limits assumed): as the sequence (P05164 279-745 limits assumed) above
T3 sequence (P05164 165-273 limits assumed): as the sequence (P05164 165-273 limits assumed) above
T1 sequence (P05164 279-745 limits assumed): as the sequence (P05164 279-745 limits assumed) above
T1 sequence (P05164 165-273 limits assumed): as the sequence (P05164 165-273 limits assumed) above
T2 sequence (P02745 23-245): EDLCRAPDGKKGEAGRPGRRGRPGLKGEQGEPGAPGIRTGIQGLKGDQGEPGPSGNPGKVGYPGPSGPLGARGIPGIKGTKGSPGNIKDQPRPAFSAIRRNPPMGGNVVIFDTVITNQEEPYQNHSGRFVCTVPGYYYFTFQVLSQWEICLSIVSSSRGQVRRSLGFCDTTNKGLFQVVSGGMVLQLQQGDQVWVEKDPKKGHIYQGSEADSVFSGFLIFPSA
T2 sequence (P02746 28-253): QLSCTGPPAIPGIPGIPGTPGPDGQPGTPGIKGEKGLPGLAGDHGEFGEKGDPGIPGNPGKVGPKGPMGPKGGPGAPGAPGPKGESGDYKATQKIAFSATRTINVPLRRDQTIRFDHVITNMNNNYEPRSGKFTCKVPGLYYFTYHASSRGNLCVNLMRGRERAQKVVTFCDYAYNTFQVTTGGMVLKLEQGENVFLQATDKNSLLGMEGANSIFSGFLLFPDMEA
T2 sequence (P02747 29-245): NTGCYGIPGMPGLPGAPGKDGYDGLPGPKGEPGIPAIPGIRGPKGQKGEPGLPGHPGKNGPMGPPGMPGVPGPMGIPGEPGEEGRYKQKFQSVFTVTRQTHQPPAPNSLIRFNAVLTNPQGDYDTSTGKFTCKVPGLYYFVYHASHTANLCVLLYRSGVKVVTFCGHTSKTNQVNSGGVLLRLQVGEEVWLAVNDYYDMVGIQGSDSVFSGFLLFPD

Consider `CC[C@H](C)[C@H](N)C(=O)N[C@@H](C)C(=O)N[C@@H](CC(C)C)C(=O)N[C@H](C(=O)N[C@@H](CC(C)C)C(=O)N[C@@H](CCC(=O)O)C(=O)N1CCC[C@H]1C(=O)N[C@H](C(=O)N[C@@H](CS)C(=O)N[C@@H](CS)C(=O)N[C@@H](CCC(N)=O)C(=O)N[C@@H](CCC(=O)O)C(=O)N[C@@H](CCCNC(=N)N)C(=O)N[C@@H](C)C(=O)N[C@@H](C)C(=O)O)[C@@H](C)CC)[C@@H](C)CC` [PA], for which, in experiment [1], the “binding to MPO, in words” value is “near complete overlay of the 18 and PA curves”. Further, the “binding to C1q, in words” value in experiment [2] is reported as “superior binding to C1q as compared with the other peptides”.

Regarding `CC[C@H](C)[C@H](N)C(=O)N[C@@H](C)C(=O)N[C@@H](CC(C)C)C(=O)N[C@H](C(=O)N[C@@H](CC(C)C)C(=O)N[C@@H](CCC(=O)O)C(=O)N1CCC[C@H]1C(=O)N[C@H](C(=O)N(C)CC(=O)N[C@@H](CS)C(=O)N[C@@H](CCC(N)=O)C(=O)N[C@@H](CCC(=O)O)C(=O)N[C@@H](CCCNC(=N)N)C(=O)N[C@@H](C)C(=O)N[C@@H](C)C(=O)O)[C@@H](C)CC)[C@@H](C)CC` [C9] (H-IALILEPI[Sar]CQERAA-OH), in experiment [3], the “complement inhibition overall, in words” value was “performed almost identically to the parent compound, PA-dPEG24” and the “inhibition of ABO incompatible hemolysis, in words” value is given as “inhibited ABO incompatible hemolysis to a greater extent than did the PA-dPEG24”. The “inhibition of heme ring degradation, in words” value in experiment [4] is recorded as “near perfect preservation of the heme ring absorption spectrum”. For the same compound, the “total antioxidant capacity, in words” value in experiment [5] was “approximately half of the antioxidant capacity as PA-dPEG24”.

On to `CC[C@H](C)[C@H](N)C(=O)N[C@@H](C)C(=O)N(C)CC(=O)N[C@H](C(=O)N[C@@H](CC(C)C)C(=O)N[C@@H](CCC(=O)O)C(=O)N1CCC[C@H]1C(=O)N[C@H](C(=O)N[C@@H](CS)C(=O)N[C@@H](CS)C(=O)N[C@@H](CCC(N)=O)C(=O)N[C@@H](CCC(=O)O)C(=O)N[C@@H](CCCNC(=N)N)C(=O)N[C@@H](C)C(=O)N[C@@H](C)C(=O)O)[C@@H](C)CC)[C@@H](C)CC` [L3] (H-IA[Sar]ILEPICCQERAA-OH), for which the “total antioxidant capacity, in words” value in experiment [5] was “antioxidant capacity approaching that of PA-dPEG24”.

Take `CC[C@H](C)[C@H](N)C(=O)N[C@@H](C)C(=O)N[C@@H](CC(C)C)C(=O)N(C)CC(=O)N[C@@H](CC(C)C)C(=O)N[C@@H](CCC(=O)O)C(=O)N1CCC[C@H]1C(=O)N[C@H](C(=O)N[C@@H](CS)C(=O)N[C@@H](CS)C(=O)N[C@@H](CCC(N)=O)C(=O)N[C@@H](CCC(=O)O)C(=O)N[C@@H](CCCNC(=N)N)C(=O)N[C@@H](C)C(=O)N[C@@H](C)C(=O)O)[C@@H](C)CC` [I4] (H-IAL[Sar]LEPICCQERAA-OH): the “inhibition of NETosis (free DNA, PicoGreen), in words” value in experiment [6] is on record as “reduced ability to inhibit NETosis compared with PA-dPEG24”. Besides, in experiment [3], the “inhibition of ABO incompatible hemolysis, in words” value is “inhibited ABO incompatible hemolysis to a greater extent than did the PA-dPEG24”. Moreover, the “total antioxidant capacity, in words” value in experiment [5] is “antioxidant capacity approaching that of PA-dPEG24”.

For the compound `CC[C@H](C)[C@H](N)C(=O)N[C@@H](C)C(=O)N[C@@H](CC(C)C)C(=O)N[C@H](C(=O)N[C@@H](CC(C)C)C(=O)N[C@@H](CCC(=O)O)C(=O)N1CCC[C@H]1C(=O)N[C@H](C(=O)N(C)CC(=O)N[C@@H](CCC(N)=O)C(=O)N[C@@H](CCC(=O)O)C(=O)N[C@@H](CCCNC(=N)N)C(=O)N[C@@H](C)C(=O)N[C@@H](C)C(=O)O)[C@@H](C)CC)[C@@H](C)CC` [C9, 10] (H-IALILEPI[Sar]QERAA-OH), the “MPO inhibition, in words” value in experiment [7] (dose-response and half-maximal inhibition, FIG. 2A, 2B) is “does not possess”. Also, the MPO inhibition in experiment [7] (setting [9]) is 0. Also, the “inhibition of NETosis (free DNA, PicoGreen), in words” value in experiment [6] was “only slight inhibition relative to the negative control”. In experiment [3], the “complement inhibition overall, in words” value is listed as “most, but not all, complement inhibition was lost” and the “inhibition of ABO incompatible hemolysis, in words” value is reported as “minimal inhibition of ABO hemolysis”. In addition, the “ABO C’ inhibition” value in experiment [3] (setting [9]) was 0. In experiment [4], the “inhibition of heme ring degradation, in words” value is reported as “showed inhibition of heme ring degradation”. For the same compound, the “total antioxidant capacity, in words” value in experiment [5] is “no antioxidant capacity”. Also, in experiment [5] (setting [9]), the “Total Antioxidant Cap” value is listed as 0. In experiment [8] (peptides at 0.4 mM, compared with PA-dPEG24, FIG. 1B), the “inhibition of classical pathway hemolysis, in words” value was “minimal activity”. In addition, the “Classical C’ inhibition” value in experiment [8] (setting [9]) came to 0.

Take `CC[C@H](C)[C@H](N)C(=O)N(C)CC(=O)N[C@@H](CC(C)C)C(=O)N[C@H](C(=O)N[C@@H](CC(C)C)C(=O)N[C@@H](CCC(=O)O)C(=O)N1CCC[C@H]1C(=O)N[C@H](C(=O)N[C@@H](CS)C(=O)N[C@@H](CS)C(=O)N[C@@H](CCC(N)=O)C(=O)N[C@@H](CCC(=O)O)C(=O)N[C@@H](CCCNC(=N)N)C(=O)N[C@@H](C)C(=O)N[C@@H](C)C(=O)O)[C@@H](C)CC)[C@@H](C)CC` [A2] (H-I[Sar]LILEPICCQERAA-OH): the “inhibition of ABO incompatible hemolysis, in words” value in experiment [3] is reported as “inhibited ABO incompatible hemolysis to a greater extent than did the PA-dPEG24”.
